“And” between values parts separate entries of the source, which are not always exact repeats. Identical values can stand only once.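 Briefly, cells in 96-well plates were exposed to five compound concentrations for 48 h, and endpoints were estimated by linear interpolation. Here, GI50 denotes the concentration required for 50% inhibition of growth. TGI: total growth inhibition.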
Legend:
Test in all cases: NCI tumour cell line growth inhibition, 48 h
A498 renal = test system: A498 renal
A549 NSCLC = test system: A549 NSCLC
BT-549 breast = test system: BT-549 breast
HOP-62 NSCLC = test system: HOP-62 NSCLC
HS 578T breast = test system: HS 578T breast
NCI-H522 lung = test system: NCI-H522 lung
OVCAR-5 ovarian = test system: OVCAR-5 ovarian
OVCAR-8 ovarian = test system: OVCAR-8 ovarian
SK-MEL-5 melanoma = test system: SK-MEL-5 melanoma
T-47D breast = test system: T-47D breast

| Compound | GI50 (A498 renal) | TGI (A498 renal) | GI50 (A549 NSCLC) | TGI (A549 NSCLC) | GI50 (BT-549 breast) | TGI (BT-549 breast) | GI50 (HOP-62 NSCLC) | TGI (HOP-62 NSCLC) | GI50 (HS 578T breast) | TGI (HS 578T breast) | GI50 (NCI-H522 lung) | TGI (NCI-H522 lung) | GI50 (OVCAR-5 ovarian) | TGI (OVCAR-5 ovarian) | GI50 (OVCAR-8 ovarian) | TGI (OVCAR-8 ovarian) | GI50 (SK-MEL-5 melanoma) | TGI (SK-MEL-5 melanoma) | GI50 (T-47D breast) | TGI (T-47D breast) |
| --- | --- | --- | --- | --- | --- | --- | --- | --- | --- | --- | --- | --- | --- | --- | --- | --- | --- | --- | --- | --- |
| C[C@@H]1C[C@H](N)C[C@H](c2ccncc2NC(=O)c2ccc(F)c(-c3c(F)cccc3F)n2)C1 | 11.6 µM and 4.53 µM | 24.8 µM and > 10 µM | 15.9 µM and > 10 µM | 31.6 µM and > 10 µM | 10.3 µM and 5.17 µM | 22.6 µM and > 10 µM | 10.6 µM and > 10 µM | 25.2 µM and > 10 µM | 13.4 µM and > 10 µM | 49 µM and > 10 µM | 13.2 µM and > 10 µM | 28.6 µM and > 10 µM | 12.3 µM and > 10 µM | 25.9 µM and > 10 µM | 17.1 µM and > 10 µM | 32.8 µM and > 10 µM | 13 µM and 1.58 µM | 26.2 µM and 5.01 µM | 10.5 µM and 8.5 µM | 28.5 µM and > 10 µM |
| O=c1cc(-c2ccc(F)cc2)[nH]c2ncccc12 |  | > 100 µM |  | > 100 µM |  | > 100 µM |  | > 100 µM |  | > 100 µM |  | > 100 µM |  | > 100 µM |  | > 100 µM | 30.3 µM | > 100 µM |  | > 100 µM |
| Cc1cc2c(F)c(Oc3ncnc(Nc4ccc(N5C[C@@H](C)N[C@@H](C)C5)cc4)c3C#N)cc(F)c2[nH]1 | 0.0134 µM | 0.384 µM | 2.84 µM | 8.02 µM | 0.816 µM | 2.38 µM | 2.86 µM | 9.87 µM | 1.77 µM | 5.4 µM | 2.14 µM | 4.54 µM | 2.8 µM | 8.68 µM | 2.8 µM | 9.11 µM | 1.71 µM | 3.13 µM | 1.97 µM | 5.57 µM |
| COc1nc(N)nc2c1ncn2C1CC(O)C(CO)O1 (stereo unspecified) |  | > 100 µM |  | > 100 µM |  | > 100 µM |  | > 100 µM |  | > 100 µM |  | > 100 µM |  | > 100 µM |  | > 100 µM |  | > 100 µM |  | > 100 µM |
| O=C(O)c1cccc(S(=O)(=O)NCCO)c1 |  | > 100 µM |  | > 100 µM |  | > 100 µM |  | > 100 µM |  | > 100 µM |  | > 100 µM |  | > 100 µM |  | > 100 µM |  | > 100 µM |  | > 100 µM |
| Cc1c(CN2CCN(C(=O)[C@H](C)O)CC2)sc2c(N3CCOCC3)nc(-c3cnc(N)nc3)nc12 | 0.0542 µM and 0.0283 µM | 0.242 µM and 0.15 µM | 0.439 µM and 0.207 µM | 9.75 µM and 7.57 µM | 0.146 µM and 0.065 µM | 3.11 µM and 0.57 µM | 0.548 µM and 0.182 µM | > 7.07 µM and 3.85 µM | 0.0539 µM and 0.0446 µM | 0.541 µM and 0.352 µM | 0.22 µM and 0.156 µM | > 10 µM | 0.192 µM and 0.128 µM | > 10 µM and 4.3 µM | 0.631 µM and 0.26 µM | > 10 µM and 2.34 µM | 0.397 µM and 0.174 µM | 2.15 µM and 0.741 µM | 0.0145 µM and 0.0269 µM | 0.332 µM and 0.175 µM |
| O=C(c1c(F)c(F)c(F)c(F)c1F)c1c(F)c(F)c(F)c(F)c1F |  | 9.16 µM |  | 15.4 µM |  | 6.68 µM |  | 3.49 µM |  | > 26.6 µM |  | 0.392 µM |  | 3.65 µM |  | 2.97 µM |  | 8.24 µM |  | > 100 µM |
| CCN1CCN(CCNc2nccc(-c3c(-c4ccc(F)c(O)c4)nc4occn34)n2)S1(=O)=O | 5.15 µM | > 100 µM | 4.58 µM | > 100 µM | 2.97 µM | > 100 µM | 5.97 µM | > 100 µM | 6.75 µM | > 100 µM | 2.93 µM | > 100 µM | > 100 µM | > 100 µM | 3.63 µM | > 100 µM | 2.23 µM | 5.89 µM | 2.13 µM | 24.6 µM |

From PubChem BioAssay (NCI)
